Experimental data reported in patent publication US6355799B1, “Substituted benzene compounds, process for their preparation, and herbicidal and defoliant compositions containing them” (ISK Americas Incorporated, priority 1997, dated 2002).

Legend:
Type in all cases: in vivo
[1] = test system: velvetleaf (Abutilon theophrasti, ABUTH); test: Post-emerge test, greenhouse herbicide activity screening; settings: phytotoxicity rating 0-100 (0 no damage, 100 complete death), 14 days after application
Procedure, shortened: (§1)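 Sandy loam pots; pre-emerge: sown 1 d pre-spray, surface-watered after, then bottom-watered. Post-emerge: sown 8–21 d before, 2–3 leaf stage, + 0.25% v/v NIS, bottom-watered. Acetone, 187 l/ha track spray, 15–1000 g ai/ha. 0–100 injury score, day 14.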

[2] = test system: green foxtail (Setaria viridis, SETVI); test: as above; settings: phytotoxicity rating 0-100 (0 no damage, 100 complete death), 14 days after application
Procedure, shortened: as §1

[3] = test system: johnsongrass (Sorghum halepense, SORHA); test: as above; settings: phytotoxicity rating 0-100 (0 no damage, 100 complete death), 14 days after application
Procedure, shortened: as §1

[4] = test system: large crabgrass (Digitaria sanguinalis, DIGSA); test: as above; settings: phytotoxicity rating 0-100 (0 no damage, 100 complete death), 14 days after application
Procedure, shortened: as §1

[5] = test system: redroot pigweed (Amaranthus retroflexus, AMARE); test: as above; settings: phytotoxicity rating 0-100 (0 no damage, 100 complete death), 14 days after application
Procedure, shortened: as §1

[6] = test system: ivyleaf morningglory (Ipomoea hederacea, IPOHE); test: as above; settings: phytotoxicity rating 0-100 (0 no damage, 100 complete death), 14 days after application
Procedure, shortened: as §1

[7] = test system: sicklepod (Cassia obtusifolia, CASOB); test: as above; settings: phytotoxicity rating 0-100 (0 no damage, 100 complete death), 14 days after application
Procedure, shortened: as §1

[8] = test system: barnyardgrass (Echinochloa crus-galli, ECHCG); test: as above; settings: phytotoxicity rating 0-100 (0 no damage, 100 complete death), 14 days after application
Procedure, shortened: as §1

[9] = test system: lambsquarters (Chenopodium album, CHEAL); test: as above; settings: phytotoxicity rating 0-100 (0 no damage, 100 complete death), 14 days after application
Procedure, shortened: as §1

[10] = test system: velvetleaf (Abutilon theophrasti, ABUTH); test: Pre-emerge test, greenhouse herbicide activity screening; settings: pre-emerge, rated 14 days after application, 0 = no damage, 100 = complete death
Procedure, shortened: (§2)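 Applied at 15–1000 g ai/ha from acetone in 187 l/ha spray volume. Post-emergence applications included 0.25% v/v non-ionic surfactant and reached plants sown 8–21 days before. Pre-emergence applications were incorporated by surface watering. Efficacy or crop damage was rated on a 0–100 scale after 14 days.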

[11] = test system: green foxtail (Setaria viridis, SETVI); test: as above; settings: pre-emerge, rated 14 days after application, 0 = no damage, 100 = complete death
Procedure, shortened: as §2

[12] = test system: johnsongrass (Sorghum halepense, SORHA); test: as above; settings: pre-emerge, rated 14 days after application, 0 = no damage, 100 = complete death
Procedure, shortened: as §2

[13] = test system: large crabgrass (Digitaria sanguinalis, DIGSA); test: as above; settings: pre-emerge, rated 14 days after application, 0 = no damage, 100 = complete death
Procedure, shortened: as §2

[14] = test system: ivyleaf morningglory (Ipomoea hederacea, IPOHE); test: as above; settings: pre-emerge, rated 14 days after application, 0 = no damage, 100 = complete death
Procedure, shortened: as §2

[15] = test system: sicklepod (Cassia obtusifolia, CASOB); test: as above; settings: pre-emerge, rated 14 days after application, 0 = no damage, 100 = complete death
Procedure, shortened: as §2

[16] = test system: barnyardgrass (Echinochloa crus-galli, ECHCG); test: as above; settings: pre-emerge, rated 14 days after application, 0 = no damage, 100 = complete death
Procedure, shortened: as §2

[17] = test system: lambsquarters (Chenopodium album, CHEAL); test: as above; settings: pre-emerge, rated 14 days after application, 0 = no damage, 100 = complete death
Procedure, shortened: as §2

[18] = test system: upland rice (Oryza sp., var. Tebonnet, RICE); test: Pre-emerge test, crop safety; settings: pre-emerge, rated 14 days after application, 0 = no damage, 100 = complete death
Procedure, shortened: (§3)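 Plants grown in 10 cm pots of sandy loam mix received acetone-dissolved compounds through a moving flat-fan nozzle. Doses ranged from 15 to 1000 g ai/ha. Pre-emerge pots were seeded one day earlier, post-emerge pots 8–21 days earlier. Fourteen days on, each pot was graded 0–100 for damage.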

[19] = test system: field corn (Zea mays L., var. Dekalb 535, CORN); test: Pre-emerge test, crop safety; settings: pre-emerge, rated 14 days after application, 0 = no damage, 100 = complete death
Procedure, shortened: as §3

[20] = test system: redroot pigweed (Amaranthus retroflexus, AMARE); test: Pre-emerge test, greenhouse herbicide activity screening; settings: pre-emerge, rated 14 days after application, 0 = no damage, 100 = complete death
Procedure, shortened: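 Herbicidal damage is scored 0 (none) to 100 (complete plant death) two weeks after a simulated field spray. Rates span 15–1000 g ai/ha, delivered in acetone at 187 l/ha. For post-emergence treatments, plants have 2–3 leaves and the spray carries 0.25% v/v non-ionic surfactant.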

[21] = test system: upland rice (Oryza sp., var. Tebonnet, RICE); test: Post-emerge test, crop safety; settings: phytotoxicity rating 0-100 (0 no damage, 100 complete death), 14 days after application
Procedure, shortened: as §2

[22] = test system: field corn (Zea mays L., var. Dekalb 535, CORN); test: Post-emerge test, crop safety; settings: phytotoxicity rating 0-100 (0 no damage, 100 complete death), 14 days after application
Procedure, shortened: as §2

## C=C(C)C(=O)N(C(=O)C(=C)C)c1c(OC)c(Cl)cc(F)c1-n1c(=O)cc(C(F)(F)F)n(C)c1=O [2-6]
[1]; 63 g ai/ha
  Post-emerge Herbicidal Activity ABUTH: 0
[1]; 250 g ai/ha
  Post-emerge Herbicidal Activity ABUTH: 70
[2]; 63 g ai/ha
  Post-emerge Herbicidal Activity SETVI: 0
[2]; 250 g ai/ha
  Post-emerge Herbicidal Activity SETVI: 0
[3]; 63 g ai/ha
  Post-emerge Herbicidal Activity SORHA: 0
[3]; 250 g ai/ha
  Post-emerge Herbicidal Activity SORHA: 0
[4]; 63 g ai/ha
  Post-emerge Herbicidal Activity DIGSA: 0
[4]; 250 g ai/ha
  Post-emerge Herbicidal Activity DIGSA: 0
[5]; 63 g ai/ha
  Post-emerge Herbicidal Activity AMARE: 0
[5]; 250 g ai/ha
  Post-emerge Herbicidal Activity AMARE: 10
[6]; 63 g ai/ha
  Post-emerge Herbicidal Activity IPOHE: 0
[6]; 250 g ai/ha
  Post-emerge Herbicidal Activity IPOHE: 30
[7]; 63 g ai/ha
  Post-emerge Herbicidal Activity CASOB: 0
[7]; 250 g ai/ha
  Post-emerge Herbicidal Activity CASOB: 0
[8]; 63 g ai/ha
  Post-emerge Herbicidal Activity ECHCG: 0
[8]; 250 g ai/ha
  Post-emerge Herbicidal Activity ECHCG: 0
[9]; 63 g ai/ha
  Post-emerge Herbicidal Activity CHEAL: 0
[9]; 250 g ai/ha
  Post-emerge Herbicidal Activity CHEAL: 30
[10]; 63 g ai/ha
  Pre-emerge Herbicidal Activity ABUTH (phytotoxicity rating, scale 0-100): 0
[10]; 250 g ai/ha
  Pre-emerge Herbicidal Activity ABUTH (phytotoxicity rating, scale 0-100): 0
[11]; 63 g ai/ha
  Pre-emerge Herbicidal Activity SETVI (phytotoxicity rating, scale 0-100): 0
[11]; 250 g ai/ha
  Pre-emerge Herbicidal Activity SETVI (phytotoxicity rating, scale 0-100): 80
[12]; 63 g ai/ha
  Pre-emerge Herbicidal Activity SORHA (phytotoxicity rating, scale 0-100): 0
[12]; 250 g ai/ha
  Pre-emerge Herbicidal Activity SORHA (phytotoxicity rating, scale 0-100): 20
[13]; 63 g ai/ha
  Pre-emerge Herbicidal Activity DIGSA (phytotoxicity rating, scale 0-100): 0
[13]; 250 g ai/ha
  Pre-emerge Herbicidal Activity DIGSA (phytotoxicity rating, scale 0-100): 10
[14]; 63 g ai/ha
  Pre-emerge Herbicidal Activity IPOHE (phytotoxicity rating, scale 0-100): 0
[14]; 250 g ai/ha
  Pre-emerge Herbicidal Activity IPOHE (phytotoxicity rating, scale 0-100): 0
[15]; 63 g ai/ha
  Pre-emerge Herbicidal Activity CASOB (phytotoxicity rating, scale 0-100): 0
[15]; 250 g ai/ha
  Pre-emerge Herbicidal Activity CASOB (phytotoxicity rating, scale 0-100): 0
[16]; 63 g ai/ha
  Pre-emerge Herbicidal Activity ECHCG (phytotoxicity rating, scale 0-100): 0
[16]; 250 g ai/ha
  Pre-emerge Herbicidal Activity ECHCG (phytotoxicity rating, scale 0-100): 0
[17]; 63 g ai/ha
  Pre-emerge Herbicidal Activity CHEAL (phytotoxicity rating, scale 0-100): 0
[17]; 250 g ai/ha
  Pre-emerge Herbicidal Activity CHEAL (phytotoxicity rating, scale 0-100): 0
[18]; 63 g ai/ha
  Pre-emerge crop damage RICE (phytotoxicity rating, scale 0-100): 0
[18]; 250 g ai/ha
  Pre-emerge crop damage RICE (phytotoxicity rating, scale 0-100): 0
[19]; 63 g ai/ha
  Pre-emerge crop damage CORN (phytotoxicity rating, scale 0-100): 0
[19]; 250 g ai/ha
  Pre-emerge crop damage CORN (phytotoxicity rating, scale 0-100): 0
[20]; 63 g ai/ha
  Pre-emerge Herbicidal Activity AMARE (phytotoxicity rating, scale 0-100): 0
[20]; 250 g ai/ha
  Pre-emerge Herbicidal Activity AMARE (phytotoxicity rating, scale 0-100): 50
[21]; 63 g ai/ha
  Post-emerge Herbicidal Activity RICE (crop damage): 0
[21]; 250 g ai/ha
  Post-emerge Herbicidal Activity RICE (crop damage): 0
[22]; 63 g ai/ha
  Post-emerge Herbicidal Activity CORN (crop damage): 0
[22]; 250 g ai/ha
  Post-emerge Herbicidal Activity CORN (crop damage): 5
